# Results taken from patent publication US20140249135A1, “PIM KINASE INHIBITORS AND METHODS OF THEIR USE” (NOVARTIS AG, priority 2007, published 2014).
# Read-outs that look alike come from different tables or passages of the source.
# Tests used:
# [1] = target: Pim1 kinase (Homo sapiens, UniProt P11309); test: Pim1 ATP depletion assay; format: biochemical;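 further: Luciferase-luciferin luminescence readout of residual ATP after PIM1 transfers phosphate to a peptide substrate, 40 µM ATP added, reaction run to roughly half ATP consumption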
# Sequence of Pim1 kinase (P11309 whole entry): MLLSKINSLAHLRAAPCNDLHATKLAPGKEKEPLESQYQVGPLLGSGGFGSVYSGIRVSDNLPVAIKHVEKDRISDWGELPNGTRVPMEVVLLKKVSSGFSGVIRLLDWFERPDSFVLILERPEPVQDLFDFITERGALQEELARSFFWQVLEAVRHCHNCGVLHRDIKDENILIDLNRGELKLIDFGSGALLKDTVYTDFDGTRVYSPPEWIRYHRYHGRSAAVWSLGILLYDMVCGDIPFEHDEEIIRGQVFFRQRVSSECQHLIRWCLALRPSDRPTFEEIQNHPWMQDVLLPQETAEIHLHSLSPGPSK
# [2] = target: Pim2 kinase (Homo sapiens, UniProt Q9P1W9); test: Pim2 ATP depletion assay; format: biochemical;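 further: Luciferase-based luminescent readout of ATP remaining after PIM2 phosphorylates a BAD peptide, final 5 nM enzyme, 4 µM ATP, 10 µM peptide, 2.5% DMSO, run to roughly half ATP consumption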
# Sequence of Pim2 kinase (Q9P1W9 whole entry): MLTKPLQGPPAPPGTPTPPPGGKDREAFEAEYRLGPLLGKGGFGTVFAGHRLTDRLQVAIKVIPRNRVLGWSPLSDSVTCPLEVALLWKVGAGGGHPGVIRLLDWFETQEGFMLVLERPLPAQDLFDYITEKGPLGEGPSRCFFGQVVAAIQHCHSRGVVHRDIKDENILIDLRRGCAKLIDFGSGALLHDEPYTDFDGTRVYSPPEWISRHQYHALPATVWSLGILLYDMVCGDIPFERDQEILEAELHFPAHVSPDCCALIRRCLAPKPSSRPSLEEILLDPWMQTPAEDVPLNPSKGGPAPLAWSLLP
# [3] = target: Pim3 kinase (Homo sapiens, UniProt Q86V86); test: Pim3 ATP depletion assay; format: biochemical
# [4] = system: HEL 92.1.7 cells; test: Cell proliferation assay (CellTiter-Glo), HEL 92.1.7; format: cell-based; details: Homo sapiens
# Procedure, shortened: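 Cells in RPMI1640 with 10% FBS were seeded at 1000 cells/well and exposed to compound dilutions from DMSO stocks for 3 days at 37 °C. Viability was read by CellTiter-Glo luminescence. EC50 was derived from percent inhibition relative to DMSO-only and control-compound wells.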
# [5] = target: T1, human full length PKCE enzyme (Homo sapiens, UniProt Q02156); test: In vitro PKCE assay; format: biochemical; details: 10 nM enzyme, 40 uM peptide substrate, 20 uM ATP, KinaseGlo Plus readout; read-out: PKCε IC50
# T1 construct: human full length PKCE enzyme purchased from InVitrogen; purchased InVitrogen
# T1 sequence (Q02156 1-737): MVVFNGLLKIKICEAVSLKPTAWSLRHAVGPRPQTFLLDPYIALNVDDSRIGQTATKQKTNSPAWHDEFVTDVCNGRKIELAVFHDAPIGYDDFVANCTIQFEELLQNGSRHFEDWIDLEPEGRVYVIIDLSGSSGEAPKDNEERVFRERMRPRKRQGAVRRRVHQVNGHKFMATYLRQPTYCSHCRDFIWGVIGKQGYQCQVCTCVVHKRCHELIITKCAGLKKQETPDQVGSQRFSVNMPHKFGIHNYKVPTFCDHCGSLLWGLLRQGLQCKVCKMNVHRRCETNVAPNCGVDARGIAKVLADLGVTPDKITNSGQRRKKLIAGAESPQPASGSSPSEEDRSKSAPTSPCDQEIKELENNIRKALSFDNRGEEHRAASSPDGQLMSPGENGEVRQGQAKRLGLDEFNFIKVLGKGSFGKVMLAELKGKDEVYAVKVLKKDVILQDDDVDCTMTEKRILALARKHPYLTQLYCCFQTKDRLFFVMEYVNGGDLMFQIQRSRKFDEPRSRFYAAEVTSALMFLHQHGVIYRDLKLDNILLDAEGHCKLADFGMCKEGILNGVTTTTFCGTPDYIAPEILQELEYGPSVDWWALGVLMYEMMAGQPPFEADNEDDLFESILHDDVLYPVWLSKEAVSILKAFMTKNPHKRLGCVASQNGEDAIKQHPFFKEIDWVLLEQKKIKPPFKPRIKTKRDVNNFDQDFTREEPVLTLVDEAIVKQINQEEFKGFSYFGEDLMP
# [6] = target: KDR kinase (Homo sapiens, UniProt P35968); test: KDR AlphaScreen assay; details: KDR IC50 (μM)
# Sequence of KDR kinase (P35968 20-1356): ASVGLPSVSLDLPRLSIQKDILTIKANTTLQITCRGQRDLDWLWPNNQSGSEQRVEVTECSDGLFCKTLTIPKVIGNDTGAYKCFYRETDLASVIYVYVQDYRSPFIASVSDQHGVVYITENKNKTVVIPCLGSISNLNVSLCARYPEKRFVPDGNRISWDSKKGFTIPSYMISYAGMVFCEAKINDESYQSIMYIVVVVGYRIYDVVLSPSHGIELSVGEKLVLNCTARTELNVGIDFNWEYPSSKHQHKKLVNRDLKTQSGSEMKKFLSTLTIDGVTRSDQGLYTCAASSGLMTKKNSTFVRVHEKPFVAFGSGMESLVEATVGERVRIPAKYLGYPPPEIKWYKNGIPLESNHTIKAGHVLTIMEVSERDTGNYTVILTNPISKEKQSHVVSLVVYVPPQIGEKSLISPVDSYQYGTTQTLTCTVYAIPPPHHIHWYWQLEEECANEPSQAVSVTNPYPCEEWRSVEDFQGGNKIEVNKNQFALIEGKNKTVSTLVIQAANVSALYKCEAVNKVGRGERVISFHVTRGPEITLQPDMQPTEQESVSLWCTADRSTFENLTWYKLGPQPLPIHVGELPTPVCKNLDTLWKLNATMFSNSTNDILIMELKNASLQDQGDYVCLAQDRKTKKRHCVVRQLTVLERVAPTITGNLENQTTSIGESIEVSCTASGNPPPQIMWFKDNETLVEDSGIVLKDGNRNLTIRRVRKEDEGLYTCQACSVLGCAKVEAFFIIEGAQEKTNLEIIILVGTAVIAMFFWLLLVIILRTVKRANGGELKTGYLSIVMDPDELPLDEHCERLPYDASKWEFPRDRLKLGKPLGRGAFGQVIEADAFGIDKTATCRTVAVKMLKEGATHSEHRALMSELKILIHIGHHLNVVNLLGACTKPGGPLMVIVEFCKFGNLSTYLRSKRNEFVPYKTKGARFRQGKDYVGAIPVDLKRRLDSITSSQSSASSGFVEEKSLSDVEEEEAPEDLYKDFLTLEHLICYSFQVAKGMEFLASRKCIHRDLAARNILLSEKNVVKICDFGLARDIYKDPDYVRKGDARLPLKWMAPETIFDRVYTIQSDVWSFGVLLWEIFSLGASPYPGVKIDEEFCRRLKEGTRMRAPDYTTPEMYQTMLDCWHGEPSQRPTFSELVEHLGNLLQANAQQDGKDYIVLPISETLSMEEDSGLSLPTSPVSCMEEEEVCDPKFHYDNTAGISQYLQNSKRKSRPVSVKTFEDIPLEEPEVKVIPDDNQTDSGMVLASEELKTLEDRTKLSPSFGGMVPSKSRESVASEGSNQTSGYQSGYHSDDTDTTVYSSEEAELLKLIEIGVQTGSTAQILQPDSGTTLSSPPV
# [7] = Pim1 ATP depletion assay, read-out: IC50 (μM) PIM1
SMILES,IC50 [1],IC50 ([2]; read-out: IC50 (μM) PIM2),IC50 ([3]; read-out: IC50 (μM) PIM3),EC50 ([4]; read-out: EC50 (μM) HEL 92.1.7),IC50 [5],IC50 [6],"IC50 [1, 7]","IC50 ([1]; Pim1 ATP depletion assay, read-out: PIM1 IC50)",IC50 ([2]; read-out: PIM2 IC50),IC50 ([3]; read-out: PIM3 IC50),EC50 ([4]; read-out: HEL 92.1.7 EC50)
"Nc1nccnc1C(=O)Nc1cnccc1N1CCCCC1 [Example 123, 3-amino-N-(4-piperidin-1-yl-pyridin-3-yl)pyrazine-2-carbox-amide]",< 1 µM,1 to 10 µM,< 1 µM,< 1 µM,< 1000 nM,1 to 10 µM,,,,,
"Nc1nccnc1C(=O)Nc1[nH]c(=O)ncc1N1CCCCC1 [Example 130, 3-amino-N-(2-oxo-5-piperidin-1-yl-2,3-dihydropyrimidin-4-yl)-pyrazine-2-carboxamide]",,< 1 µM,< 1 µM,5 to 10 µM,< 1000 nM,1 to 10 µM,< 1 µM,,,,
"Nc1nc(N)c(C(=O)Nc2[nH]c(=O)ncc2N2CCCCC2)nc1Cl [Example 131, 3,5-diamino-6-chloro-N-(2-oxo-5-piperidin-1-yl-2,3-dihydro-pyrimidin-4-yl)pyrazine-2-carboxamide]",,< 1 µM,< 1 µM,< 1 µM,> 25000 nM,< 1 µM,< 1 µM,,,,
"Nc1nc(N)c(C(=O)Nc2[nH]c(=O)ncc2N2CCC(C(F)(F)F)CC2)nc1Cl [Example 159, 3,5-diamino-6-chloro-N-{2-oxo-5-[4-(trifluoromethyl)piperidin-1-yl]-2,3-dihydropyrimidin-4-yl}pyrazine-2-carboxamide]",,< 1 µM,< 1 µM,5 to 10 µM,> 25000 nM,< 1 µM,< 1 µM,,,,
"Nc1nc(N)c(C(=O)Nc2[nH]c(=O)ncc2N2CCC(F)(F)CC2)nc1Cl [Example 161, 3,5-diamino-6-chloro-N-[5-(4,4-difluoropiperidin-1-yl)-2-oxo-2,3-dihydropyrimidin-4-yl]-pyrazine-2-carboxamide]",,< 1 µM,< 1 µM,> 10 µM,> 25000 nM,< 1 µM,< 1 µM,,,,
"Nc1cccnc1C(=O)Nc1ccncc1N1CCCC(N)C1 (stereo not shown) [Example 174, 3-amino-N-[3-(3-aminopiperidin-1-yl)pyridin-4-yl]pyridine-2-carboxamide]",,< 1 µM,< 1 µM,> 10 µM,1000 to 10000 nM,> 25 µM,< 1 µM,,,,
"Nc1cccnc1C(=O)Nc1cnccc1N1CCC[C@H](N)C1 [Example 175, 3-amino-N-{4-[(3S)-3-amino-piperidin-1-yl]pyridin-3-yl}-pyridine-2-carboxamide]",< 1 µM,< 1 µM,< 1 µM,> 10 µM,1000 to 10000 nM,> 25 µM,,,,,
"NCC1CCCN(c2ccncc2NC(=O)c2nc(Cl)c(N)nc2N)C1 (stereo not shown) [Example 182, 3,5-diamino-N-{4-[3-(amino-methyl)piperidin-1-yl]pyridin-3-yl}-6-chloropyrazine-2-carboxamide]",,< 1 µM,< 1 µM,< 1 µM,1000 to 10000 nM,1 to 10 µM,< 1 µM,,,,
"Nc1nc(N)c(C(=O)Nc2cnccc2N2CCCC(N)C2)nc1Cl (stereo not shown) [Example 183, 3,5-diamino-N-[4-(3-amino-piperidin-1-yl)pyridin-3-yl]-6-chloropyrazine-2-carboxamide]",,< 1 µM,< 1 µM,< 1 µM,10000 to 25000 nM,1 to 10 µM,< 1 µM,,,,
"NCC1CCCN(c2ccncc2NC(=O)c2nccnc2N)C1 (stereo not shown) [Example 184, 3-amino-N-{4-[3-(aminomethyl)-piperidin-1-yl]pyridin-3-yl}pyrazine-2-carboxamide]",< 1 µM,1 to 10 µM,< 1 µM,< 1 µM,< 1000 nM,10 to 25 µM,,,,,
"NCCC(=O)N1CCN(c2ccncc2NC(=O)c2nc(Cl)c(N)nc2N)CC1 [Example 185, 3,5-Diamino-6-chloro-pyrazine-2-carboxylic acid {4-[4-(3-amino-propionyl)-piperazin-1-yl]-pyridin-3-yl}-amide]",,< 1 µM,< 1 µM,< 1 µM,1000 to 10000 nM,1 to 10 µM,< 1 µM,,,,
"Nc1nccnc1C(=O)Nc1[nH]c(=O)ncc1N1CCCC(N)C1 (stereo not shown) [Example 235, 3-amino-N-[5-(3-aminopiperidin-1-yl)-2-oxo-2,3-dihydro-pyrimidin-4-yl]pyrazine-2-carboxamide]",,< 1 µM,< 1 µM,> 10 µM,< 1000 nM,10 to 25 µM,< 1 µM,,,,
CS(=O)(=O)c1cccc(-c2ccc(N)c(C(=O)Nc3cnccc3N3CCC[C@H](N)C3)n2)c1 [Example 320],,< 1 µM,< 1 µM,> 10 µM,10000 to 25000 nM,> 25 µM,< 1 µM,,,,
"N#Cc1ccccc1-c1ccc(N)c(C(=O)Nc2cnccc2N2CCC[C@H](N)C2)n1 [Example 332, 3-amino-6-(2-cyano-phenyl)-pyridine-2-carboxylic acid ((S)-3-amino-3,4,5,6-tetra-hydro-2H-[1,4′]bipyridinyl-3′-yl)-amide]",,< 1 µM,< 1 µM,1 to 5 µM,1000 to 10000 nM,> 25 µM,< 1 µM,,,,
"Cc1ccc(F)c(-c2ccc(N)c(C(=O)Nc3cnccc3N3CCC[C@H](N)C3)n2)c1 [Example 333, 3-amino-6-(2-fluoro-5-methyl-phenyl)-pyridine-2-carboxylic acid ((S)-3-amino-3,4,5,6-tetrahydro-2H-[1,4′]bi-pyridinyl-3′-yl)-amide]",,< 1 µM,< 1 µM,1 to 5 µM,10000 to 25000 nM,> 25 µM,< 1 µM,,,,
"COc1ccc(F)cc1-c1ccc(N)c(C(=O)Nc2cnccc2N2CCC[C@H](N)C2)n1 [Example 427, 3-amino-6-(5-fluoro-2-methoxy-phenyl)-pyridine-2-carboxylic acid ((S)-3-amino-3,4,5,6-tetra-hydro-2H-[1,4′]bipyridinyl-3′-yl)-amide]",,< 1 µM,< 1 µM,1 to 5 µM,10000 to 25000 nM,,< 1 µM,,,,
"Nc1ncc(-c2ccccc2F)nc1C(=O)Nc1[nH]c(=O)ncc1N1CCCCC1 [Example 592, 3-amino-6-(2-fluoro-phenyl)-pyrazine-2-carboxylic acid (2-oxo-5-piperidin-1-yl-2,3-dihydro-pyrimidin-4-yl)-amide]",,,,,1000 to 10000 nM,,,< 1 µM,< 1 µM,< 1 µM,< 1 µM
